In PMC3522636, “4F Decreases IRF5 Expression and Activation in Hearts of Tight Skin Mice” (PLoS ONE, 2012):
“Also recorded” adds a separate entry of the source.

Key:
IRF5 [1] = target: T1, IRF5 (Homo sapiens, UniProt Q13568); experiment: Biolayer interferometry, 4F binding to B-IRF5; conditions: B-IRF5 on SA biosensors, Octet Red 96
T1 construct: purchased GenScript USA Inc
T1 sequence (Q13568 1-498): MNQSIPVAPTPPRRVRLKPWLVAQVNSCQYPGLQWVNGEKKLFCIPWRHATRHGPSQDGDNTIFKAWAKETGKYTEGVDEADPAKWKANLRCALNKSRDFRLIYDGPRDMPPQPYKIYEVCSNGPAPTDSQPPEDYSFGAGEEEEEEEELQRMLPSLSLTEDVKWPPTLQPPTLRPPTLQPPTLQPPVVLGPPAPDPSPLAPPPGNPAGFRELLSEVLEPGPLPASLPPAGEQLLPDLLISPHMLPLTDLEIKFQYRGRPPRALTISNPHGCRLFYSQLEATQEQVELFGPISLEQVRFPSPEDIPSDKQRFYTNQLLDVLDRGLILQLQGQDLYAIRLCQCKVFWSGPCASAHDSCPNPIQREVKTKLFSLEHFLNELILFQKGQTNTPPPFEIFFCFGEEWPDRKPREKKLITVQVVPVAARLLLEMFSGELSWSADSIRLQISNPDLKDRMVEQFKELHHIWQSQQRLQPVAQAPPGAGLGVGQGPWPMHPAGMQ
Method: Biolayer Interferometry (BLI): Protein-protein interactions were determined by BLI using an Octet Red 96™ interferometer (ForteBio, Inc, Menlo Park, CA). IRF5 was purchased (GenScript USA Inc) and labeled with biotin (cat no. 21329, Thermo Fisher Scientific, Rockford, IL) at a ratio of 1∶1, which is optimal for binding and packaging target proteins onto SA biosensors (MR18-0009, ForteBio) for studying protein-protein interactions. Biotin-labeled IRF5 (B-IRF5) was loaded onto SA-biosensors in PBS for 15 minutes to ensure saturation. The B-IRF5-loaded SA biosensors were incubated in PBS containing 4F (20 µg/ml) for 10 minutes and association measured by following increases in wavelength interference. Next the loaded biosensors were incubated in PBS alone for 10 minutes to measure dissociation of 4F from B-IRF5 by following decreases in wavelength interference.

[2] = tested on: Human umbilical vein endothelial cells; experiment: Cellular uptake of B-4F in endothelial cells; format: cell-based; conditions: B-4F 10 and 50 µg/ml; vs unlabeled 4F; 4 hours (method), 3 hours (Figure 6); confocal
Method: Human umbilical vein endothelial cells (EC; Lonza, Walkersville, MD) were incubated in EGM complete media containing 4F or B-4F (10 and 50 µg/ml) for 4 hours. The EC cultures were washed with PBS, fixed in PBS containing 1% paraformaldehyde, and permeabilized with PBS containing 0.5% Triton-X. The permeabilized sections were incubated with fluorescein-conjugated streptavidin (1 µg/ml) for 30 minutes followed by 3 PBS washes. The fixed and fluorescently labeled slides were mounted in aqueous mounting media and sections inspected and analyzed by confocal microscopy.

Tsk−/+ mice = conditions: 1 mg/kg/d, 6–8 weeks; cited from earlier work
Text: One of the reasons that we felt 4F decreased inflammation by a mechanism(s) other than those mediated by HDL function, was the extreme differences in the histopathology of the hearts from untreated and 4F treated Tsk^−/+ mice. Untreated Tsk^−/+ hearts contained much higher levels of oxidized phospholipids, and autoantibodies against oxidized lipids than control hearts. In addition, untreated Tsk^−/+ hearts were also more fibrotic and expressed more angiostatin than control hearts, which likely contributed to the notable losses in angiogenic potential in the hearts of these mice. Wh ...

IRF5 [3] = experiment: Western blot, myocardial IRF5 expression; format: in vivo, mouse; conditions: 4F 1 mg/kg/d, sc
Text: All experimental procedures and protocols involving mice were reviewed and approved by the Institutional Animal Care and Use Committee (IACUC) of the Medical College of Wisconsin (AUA#512). They also conformed to the rules in the Guiding Principles in the Care and Use of Animals published by the American Physiologic Society and the Guide for the Care and Use of Laboratory Animals published by OLAW. Male Tsk^−/+ and C57Bl/6J mice (6–8 weeks of age) were purchased from Jackson Laboratories (Bar Harbor, ME). Three groups of mice were studied; C57Bl/6J, Tsk^−/+, and Tsk^−/+ mice treated with 4F (1 mg/kg/d, sc) as published previously.
Hearts harvested from C57Bl/6J, Tsk^−/+ and 4F-treated Tsk ^−/+ mice were snap-frozen and stored at −80°C for subsequent analysis. Frozen hearts were pulverized in a stainless steel mortar and pestle bathed in liquid nitrogen. The frozen powder was dissolved and homogenized in lysis buffer [MOPS pH 7.0, 20 mM; EGTA 2 mM; EDTA 5mM; NaF 30 mM; Protease Inhibitor Cocktail (Complete Mini Roche, Roche, Madison WI); Phosphatase Inhibitor Cocktail (Sigma P5726)]. Lysate proteins were quantified using BCA (bicinchoninic acid) reagent (Pierce, Rockford, IL). […] Band densities were analyzed using Image J software (NIH, Bethesda, MD).

HDL = conditions: proposed mechanism; cited from earlier work
Text: (§1) Although there is much support for the idea that 4F inhibits atherosclerosis by improving HDL function, the mechanism by which 4F decreases inflammation has not been identified completely. […] During the course of our studies for our report, [3], we found the anti-inflammatory effects of 4F on the Tsk^−/+ mice to be so profound that it was ...

[4] = cited from earlier work
Text: as §1

association with B-IRF5 (IRF5 [1]; 4F 20 µg/ml in PBS, 10 minutes): rapidly associated
dissociation from B-IRF5 (IRF5 [1]; PBS alone, 10 minutes): slow
Substance: Ac-DWFKAFYDKVAEKFKEAF-NH2 [4F]
association versus dissociation with IRF5 (IRF5 [1]; 4F 20 µg/ml): favoring association over dissociation; also recorded: favors association over dissociation; also recorded: rate of 4F association with IRF5 is faster than their rate of dissociation
uptake into EC (in words) [2]: enters EC in a concentration-dependent fashion
oxidized phospholipids and autoantibodies against oxidized phospholipids in hearts (Tsk−/+ mice): essentially eliminated oxidized phospholipids, and autoantibodies against oxidized phospholipids from the hearts
reduction of IRF5 in Tsk−/+ hearts (band density) (IRF5 [3]; 6 weeks, vs untreated Tsk−/+ hearts): 78%
myocardial IRF5 expression (in words) (IRF5 [3]; 6–8 weeks, Tsk−/+ hearts): decrease IRF5 in Tsk^−/+ hearts; also recorded: markedly decreased IRF5 expression in Tsk^−/+ hearts; also recorded: markedly decrease IRF5 expression in Tsk^−/+ myocardium; also recorded: decreases myocardial expression of IRF5; also recorded: decreases IRF5 levels and activation in the Tsk^−/+ mouse hearts
preβ HDL formation and HDL-dependent cholesterol efflux (HDL): formation of preβ HDL with improved HDL-dependent cholesterol efflux
reverse cholesterol transport (HDL): improvements in reverse cholesterol transport
affinity for oxidized versus native lipids [4]: greater affinity for oxidized rather than native lipids
